According to PMC7139549, “TLD1433 Photosensitizer Inhibits Conjunctival Melanoma Cells in Zebrafish Ectopic and Orthotopic Tumour Models” (Cancers, 2020):
Like-named read-outs stand apart in the source and are kept apart here.

Legend:
Type in all cases: cell-based, Human
[1] = system: A431 epidermoid carcinoma cell line; experiment: SRB cell viability assay, A431
Method: TLD1433 is known to generate reactive oxygen species (ROS) with high quantum efficacy in many cancer cell lines. However, there is no report of the in vitro toxicity of this compound in eye melanoma (UM) cell lines. We determined the cell viability of three conjunctival melanoma cell lines (CRMM1, CRMM2 and CM2005.1), and three uveal melanoma cell lines (OMM1, OMM2.5, MEL270) in the presence of TLD1433, both in the dark or under green light irradiation (21 mW/cm^2, 19 J/cm^2, 520 nm, 15 min), and compared this viability to epidermoid carcinoma A431 and cutaneous melanoma A375 cell lines under the same conditions. […] The phototoxicity index (PI), defined as the ratio of the dark EC50 to the light EC50, was also calculated and represents the amplification of TLD1433 activity with a light trigger. […]
(§1) Figure 2 Cell viability after TLD1433 treatment of eight tumour cell lines (CRMM1, CRMM2, CM2005.1, OMM1, OMM2.5, MEL270, A431, A375). […] The absorbance of Sulforhodamine B in solution was measured at 520 nm. […]
(§2) At day 0, cells were detached using 1mL of trypsin, resuspended in 4 mL of media and transferred to a 15 mL corning falcon tube. Cells were counted using trypan blue and BioRad® TC20™ automated cell counter (Figure 11). […] Next day, the dye was dissolved using Tri-base (0.25%) and absorbance of SRB at 510 nm was recorded from each well using a Tecan plate reader. […]

[2] = system: OMM1 uveal melanoma cell line; experiment: SRB cell viability assay, OMM1
Method: (§3) TLD1433 is known to generate reactive oxygen species (ROS) with high quantum efficacy in many cancer cell lines. However, there is no report of the in vitro toxicity of this compound in eye melanoma (UM) cell lines. We determined the cell viability of three conjunctival melanoma cell lines (CRMM1, CRMM2 and CM2005.1), and three uveal melanoma cell lines (OMM1, OMM2.5, MEL270) in the presence of TLD1433, both in the dark or under green light irradiation (21 mW/cm^2, 19 J/cm^2, 520 nm, 15 min), and compared this viability to epidermoid carcinoma A431 and cutaneous melanoma A375 cell lines under the same conditions. The protocol used was based on previous work from the Bonnet group, and differed slightly from recommendations from McFarland et al.. […] The effective concentration (EC50) values, i.e., the concentration required to reduce cell viability by 50% compared to untreated wells, were assessed by fitting the dose-response curves with a Hill equation. The phototoxicity index (PI), defined as the ratio of the dark EC50 to the light EC50, was also calculated and represents the amplification of TLD1433 activity with a light trigger. […]
as §1
as §2, with “11). Dilutions of 6000 (CRMM1), 6000 (CRMM2), 8000 (CM2005.1), 6000 (OMM1), 6000 (OMM2.5), 6000 (MEL270) 8000 (A431), and 4000 (A375) cells/well were calculated from each cell suspension at a final volume of 6 mL using the following formula: Vc=(Vt×10C)/Lc where Vt = total volume of solution, C = number of cells per well/per 100 μL and Lc = live cells count (cells/mL).” for “11).”

[3] = system: MEL270 uveal melanoma cell line; experiment: SRB cell viability assay, MEL270
Method: as §3, §1
as §2, with “11). Dilutions of 6000 (CRMM1), 6000 (CRMM2), 8000 (CM2005.1), 6000 (OMM1), 6000 (OMM2.5), 6000 (MEL270) 8000 (A431), and 4000 (A375) cells/well were calculated from each cell suspension at a final volume of 6 mL using the following formula: Vc=(Vt×10C)/Lc where Vt = total volume of solution, C = number of cells per well/per 100 μL and Lc = live cells count (cells/mL).” for “11).”

For `Cc1ccnc(-c2cc(C)ccn2)c1.Cc1ccnc(-c2cc(C)ccn2)c1.[Cl-].[Cl-].[Ru+2].c1csc(-c2ccc(-c3ccc(-c4nc5c6cccnc6c6ncccc6c5[nH]4)s3)s2)c1` [TLD1433], which EC50 ([1]; A431, dark, 24 h treatment, SRB, read-out: EC50, dark) is on record?
The EC50 was > 5000 nM.

And the EC50 ([1]; A431, green light 520 nm, 15 min, 21 mW/cm^2, 19 J.cm^−2, DLI 24 h, read-out: EC50,light)?
Its EC50 is 49 nM.

What about the EC50 ([2]; OMM1, dark, 24 h treatment, SRB, read-out: EC50, dark) of the same compound?
Its EC50 is 1400 nM.

What about the EC50 ([2]; OMM1, green light 520 nm, 15 min, 21 mW/cm^2, 19 J.cm^−2, DLI 24 h, read-out: EC50,light) of the same compound?
Its EC50 is 14 nM.

What about the “PI (photo index)” value ([2]; OMM1, ratio of dark and light EC50, 19 J.cm^−2 green light) of the same compound?
The value was 100.

What about the EC50 ([3]; MEL270, dark, 24 h treatment, SRB, read-out: EC50, dark) of the same compound?
Its EC50 is 1100 nM.

And the EC50 ([3]; MEL270, green light 520 nm, 15 min, 21 mW/cm^2, 19 J.cm^−2, DLI 24 h, read-out: EC50,light)?
The EC50 was 10 nM.

And the “PI (photo index)” value ([3]; MEL270, ratio of dark and light EC50, 19 J.cm^−2 green light)?
Its value is 110.
